Source: US6642246B1 (priority 1999, dated 2003)
pKd: −log10 of the molar value.

Target: α7 nAChR subtype (Rattus norvegicus, UniProt Q05941)
Type: binding

Chain of α7 nAChR subtype (Q05941 23-502 limits assumed): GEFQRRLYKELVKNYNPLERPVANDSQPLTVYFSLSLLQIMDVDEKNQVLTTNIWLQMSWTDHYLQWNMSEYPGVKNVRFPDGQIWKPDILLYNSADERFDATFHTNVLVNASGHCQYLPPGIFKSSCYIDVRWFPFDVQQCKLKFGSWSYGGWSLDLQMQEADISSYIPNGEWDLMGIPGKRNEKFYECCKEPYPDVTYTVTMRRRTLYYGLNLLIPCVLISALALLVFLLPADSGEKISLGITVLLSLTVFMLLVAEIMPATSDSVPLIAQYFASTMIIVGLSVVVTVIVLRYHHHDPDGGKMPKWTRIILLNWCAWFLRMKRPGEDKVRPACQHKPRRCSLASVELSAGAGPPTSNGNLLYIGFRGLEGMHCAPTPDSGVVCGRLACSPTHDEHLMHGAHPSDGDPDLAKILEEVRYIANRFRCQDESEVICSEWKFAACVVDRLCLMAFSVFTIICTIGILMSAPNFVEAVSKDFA

In the case of ^125I-α-Bungarotoxin [^125I-α-BTX], the pKd was 8.78.
